Reference: patent US11384063B2, “Modulators of estrogen receptor proteolysis and associated methods of use” (Arvinas Operations, Inc., priority 2017, dated 2022)

biological target: T1, ERα (Homo sapiens, UniProt P03372); test: ERE luciferase reporter gene assay in T47D-KBluc cells (target engagement); type: cell-based; parameters: T47D human breast cancer cells stably transfected with estrogen responsive element/promoter/luciferase reporter gene; host or cells: T47D-KBluc cells; conditions: 10% FBS, 24 hours, Table 1 cereblon centric PROTACs, read-out: ER-α Luciferase IC50
T1 sequence (P03372 1-595): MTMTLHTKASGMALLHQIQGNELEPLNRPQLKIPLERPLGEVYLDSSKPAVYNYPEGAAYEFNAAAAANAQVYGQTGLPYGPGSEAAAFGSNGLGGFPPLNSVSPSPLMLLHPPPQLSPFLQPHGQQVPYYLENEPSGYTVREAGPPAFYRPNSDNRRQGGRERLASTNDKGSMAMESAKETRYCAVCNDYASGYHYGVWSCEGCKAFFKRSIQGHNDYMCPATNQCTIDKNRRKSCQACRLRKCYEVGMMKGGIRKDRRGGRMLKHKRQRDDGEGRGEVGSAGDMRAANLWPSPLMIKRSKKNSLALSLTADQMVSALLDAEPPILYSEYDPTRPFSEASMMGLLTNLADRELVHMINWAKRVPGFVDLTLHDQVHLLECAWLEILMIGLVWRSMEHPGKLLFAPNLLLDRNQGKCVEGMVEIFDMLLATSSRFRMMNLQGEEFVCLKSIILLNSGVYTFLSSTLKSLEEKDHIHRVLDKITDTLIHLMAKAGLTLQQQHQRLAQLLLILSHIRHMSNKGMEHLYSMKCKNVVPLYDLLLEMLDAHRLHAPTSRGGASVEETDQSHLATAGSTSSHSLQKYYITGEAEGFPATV
Protocol: Chimeric molecules were assessed for target engagement in T47D cells using the commercial kit of ERE luciferase reporter gene assay. In the assay, 10% FBS was included and estrogen level was measured to be 10 pM.
ERE Luciferase Assay for Compounds in Table 1-3.
T47D-KBluc cells (ATCC #CRL_2865, T47D human breast cancer cells stably transfected with estrogen responsive element/promoter/luciferase reporter gene) were seeded into 96-well white opaque plates in RPMI growth medium supplemented with 10% fetal bovine serum and allowed to adhere overnight in a 37° C. humidified incubator. The following day, cells were treated with PROTACs in a 12-point concentration curve (top final concentration of 300 nM with subsequent concentrations being 3-fold less with 2 pM being the lowest concentration in the assay). Each PROTAC was tested independently in two experiments on 96-well plates. After 24 hours, media was removed and lysis buffer was added to the wells. Following lysis, Bright-Glo™ Luciferase Assay Substrate (Prornega, Madison Wis.) was added and the luciferase activity was measured using a Cytation 3 plate reader (TioTek™, Winooski, Vt.). Each compound was assayed in duplicates and the activity was calculated as IC50 using GraphPad Prism software (San Diego, Calif.).

Going from O=C1CCC(N2Cc3c(OCCOCCOCCOCCOCCOc4ccc(Oc5c(-c6ccc(Br)cc6)sc6cc(O)ccc56)cc4)cccc3C2=O)C(=O)N1 (stereo not shown) [Compound 25] to O=C1CCC(N2Cc3c(NCCOCCOCCOc4ccc(Oc5c(-c6ccc(Br)cc6)sc6cc(O)ccc56)cc4)cccc3C2=O)C(=O)N1 (stereo not shown) [Compound 24], the IC50 rises from 8.6 nM to 16.8 nM (2-fold).

Going from O=C1CCC(N2C(=O)c3ccc(NCCCOCCCOc4ccc(Oc5c(-c6ccc(Br)cc6)sc6cc(O)ccc56)cc4)cc3C2=O)C(=O)N1 (stereo not shown) [Compound 82] to O=C1CCC(N2Cc3c(OCCOc4ccc(Oc5c(-c6ccc(Br)cc6)sc6cc(O)ccc56)cc4)cccc3C2=O)C(=O)N1 (stereo not shown) [Compound 28], the IC50 falls from 32.2 nM to 2.7 nM (12-fold).

Compared with O=C1CCC(N2Cc3cc(N4CCN(CCCCCCOc5ccc(Oc6c(-c7ccc(Br)cc7)sc7cc(O)ccc67)cc5)CC4)ccc3C2=O)C(=O)N1 (stereo not shown) [Compound 54], O=C1CC[C@H](N2Cc3cc(OCC(=O)N4CCN(CCOc5ccc(Oc6c(-c7ccc(Br)cc7)sc7cc(O)ccc67)cc5)CC4)ccc3C2=O)C(=O)N1 [Compound 8] is 6.4-fold lower in IC50: 12.1 nM for the first, 1.9 nM for the second.

In the case of O=C1CCC(N2Cc3cc(OC4CC5(CCN(CCOc6ccc(Oc7c(-c8ccc(Br)cc8)sc8cc(O)ccc78)cc6)CC5)C4)ccc3C2=O)C(=O)N1 (stereo not shown) [Compound 50], the IC50 is reported as 2.2 nM.

same assay, conditions: 10% FBS, 24 hours, Table 2 VHL centric PROTACs, read-out: IC50

First: CC(C)(C)[C@H](NC(=O)COCCOCCN1CCC(c2ccc(Oc3c(-c4ccc(F)cc4)sc4cc(O)ccc34)cc2)CC1)C(=O)N1C[C@H](O)C[C@H]1C(=O)NCc1ccc(Cl)cc1 [Compound 144]
Second: Cc1ncsc1-c1ccc(CNC(=O)[C@@H]2C[C@@H](O)CN2C(=O)[C@@H](NC(=O)COCCO[C@H]2CCN(CCOc3ccc(Oc4c(-c5ccc(F)cc5)sc5cc(O)ccc45)cc3)C2)C(C)(C)C)cc1 [Compound 123]
The IC50 of the first is higher: over 100 nM for the first, 5.5 nM for the second.

Going from Cc1ncsc1-c1ccc(CNC(=O)[C@@H]2C[C@@H](O)CN2C(=O)[C@@H](NC(=O)COCCO[C@@H]2CCN(CCOc3ccc(Oc4c(-c5ccc(F)cc5)sc5cc(O)ccc45)cc3)C2)C(C)(C)C)cc1 [Compound 116] to Cc1ncsc1-c1ccc(CNC(=O)[C@@H]2C[C@@H](O)CN2C(=O)[C@@H](NC(=O)CCCOCC2CCN(CCOc3ccc(Oc4c(-c5ccc(F)cc5)sc5cc(O)ccc45)cc3)C2)C(C)(C)C)cc1 (stereo partly shown) [Compound 131], the IC50 falls from 3 nM to 0.4 nM (7.5-fold). The second is the more potent here.

Cc1ncsc1-c1ccc(CNC(=O)[C@@H]2C[C@@H](O)CN2C(=O)[C@H](c2cc(OCCN3CCN(CCOc4ccc(Oc5c(-c6ccc(Br)cc6)sc6cc(O)ccc56)cc4)CC3)no2)C(C)C)cc1 [Compound 163] and Cc1ncsc1-c1ccc(CNC(=O)[C@@H]2CCCN2C(=O)[C@@H](NC(=O)COCCN2CCN(CCOc3ccc(Oc4c(-c5ccc(Br)cc5)sc5cc(O)ccc45)cc3)CC2)C(C)(C)C)cc1 [Compound 156] cannot be ordered by IC50: over 100 nM for the first, over 100 nM for the second.

Cc1ncsc1-c1ccc(CNC(=O)[C@@H]2C[C@@H](O)CN2C(=O)[C@@H](NC(=O)CCCC(=O)N2CCN(CCOc3ccc(Oc4c(-c5ccc(F)cc5)sc5cc(O)ccc45)cc3)[C@H](C)C2)C(C)(C)C)cc1 [Compound 125] and Cc1ncsc1-c1ccc(CNC(=O)[C@@H]2C[C@@H](O)CN2C(=O)[C@@H](NC(=O)CCCC(=O)N2CCN(CCOc3ccc(Oc4c(-c5ccc(F)cc5)sc5cc(O)ccc45)cc3)[C@@H](C)C2)C(C)(C)C)cc1 [Compound 124] are within 1.5-fold of each other in IC50: 1.6 nM for the first, 2.2 nM for the second.

With Cc1ncsc1-c1ccc(CNC(=O)[C@@H]2C[C@@H](O)CN2C(=O)[C@@H](NC(=O)CCCC(=O)N2CCN(CCOc3ccc(Oc4c(-c5ccc(F)cc5)sc5cc(O)ccc45)cc3)CC2)C(C)(C)C)cc1 [Compound 114] the IC50 was 22 nM.

same assay, conditions: 10% FBS, 24 hours, Table 3 cereblon centric PROTACs, read-out: ER-α Luciferase IC50

First: O=C1CCC(N2C(=O)c3ccc(CCCCN4CCCN(CCOc5ccc(Oc6c(-c7ccc(Br)cc7)sc7cc(O)ccc67)cc5)CC4)cc3C2=O)C(=O)N1 (stereo not shown) [Compound 197]
Second: O=C1CCC(N2Cc3cc(N4CCN(CCCOc5ccc(Oc6c(-c7ccc(OC(F)(F)F)cc7)sc7cc(O)ccc67)cc5)CC4)c(F)cc3C2=O)C(=O)N1 (stereo not shown) [Compound 219]
The IC50 of the first is 6.8-fold lower: 2.8 nM for the first, 19.1 nM for the second. The first is the more potent here.

Compound O=C1CCC(N2Cc3cc(N4CCC(N5CC(Oc6ccc(Oc7c(-c8ccc(Br)cc8)sc8cc(O)ccc78)cc6)C5)CC4)ccc3C2=O)C(=O)N1 (stereo not shown) [Compound 233] has an IC50 of 2.1 nM.
